How the values were obtained:
[1] = tested on: IL-6 and IL-8 secretion in A549 cells; experiment: Particle-induced secretion of pro-inflammatory cytokines (ELISA) in A549 cells; assay type: cell-based; conditions: A549 cells
Experimental: (§1) Secretion of the pro-inflammatory cytokines interleukin (IL)-6, IL-8 (as well as GM-CSF and MCP-1) into cell media in response to particle exposure was measured in A549 and BEAS-2B cells using the following method.
(§2) Lung epithelial cells were seeded at 5×10^4 in 24-well plates. After pre-incubation with NBMI, the anti-oxidant compound, N-acetyl-L-cysteine (NAC), which was used as a positive control, or vehicle, for 3 hours the medium was removed.
(§3) Fresh media containing various particles (as below) in different concentrations was in a total volume of 0.5 ml for an additional 24 hours. The supernatants were then separated from the cells by centrifugation.
(§4) IL-8, IL-6, GM-CSF and MCP-1 were measured in the cell free fluid using the DuoSet ELISA Development kit (R&D Systems, Abingdon, UK) according to manufacturer's protocol.
(§5) Exposure to medium only served as negative control. Each experiment was performed twice with 4 replicates.
(§6) The effect of pre-incubation with 50 μM NBMI on particle-induced cytokine formation was tested at various concentrations of relevant particles.

[2] = tested on: IL-6 and IL-8 secretion in BEAS-2B cells; experiment: Particle-induced secretion of pro-inflammatory cytokines (ELISA) in BEAS-2B cells; assay type: cell-based
Experimental: as §1, §2, §3, §4, §5, §6

[3] = TiO2 P25 75 μg/cm^2, pre-incubation 50 μM NBMI
[4] = Urban Dust 100 μg/cm^2, pre-incubation 50 μM NBMI
[5] = TiO2 P25 100 μg/cm^2, pre-incubation 50 μM NBMI

O=C(NCCS)c1cccc(C(=O)NCCS)c1 [NBMI, N,N-bis-2-mercaptoethyl isophthalamide]
reduction of secretion of IL-6 [1, 3]: 38% | reduction of secretion of IL-8 [1, 3]: 29% | reduction of secretion of IL-6 [1, 4]: 38% | reduction of secretion of IL-8 [1, 4]: 30% | reduction of secretion of IL-6 [2, 5]: 37% | reduction of secretion of IL-8 [2, 5]: 49% | reduction of secretion of IL-6 [2, 4]: 47%

— patent US9782368B2, “Use of N,N-bis-2-mercaptoethyl isophthalamide” (EMERAMED LIMITED, priority 2014, dated 2017)
